Laboratory results taken from patent publication US9884832B2 (priority 2011, dated 2018).

These molecules were tested against AM2 S31N (serine→asparagine mutation at residue 31 in the M2 protein) (Influenza A virus, UniProt P0DOF5, S31N). Details: not given.
Type: cell-based, influenza virus A/Udorn/72
For c1cc2cn[nH]c2cc1CNC12CC3CC(CC(C3)C1)C2 [Example 43a, N-((1H-indazol-6-yl)methyl)adamantan-1-amine], the “S31N OOcyte Inhibition at 100 uM (%)” value was “B (key: (A)=31-95%; (B)=0-30%)”. With Oc1cc(-c2ccoc2)ccc1CNC12CC3CC(CC(C3)C1)C2 [Example 46a] the “S31N OOcyte Inhibition at 100 uM (%)” value was “A (key: (A)=31-95%; (B)=0-30%)”. In the case of Oc1cc(-c2cccs2)ccc1CNC12CC3CC(CC(C3)C1)C2 [Example 49a], the “S31N OOcyte Inhibition at 100 uM (%)” value is reported as “B (key: (A)=31-95%; (B)=0-30%)”. For Cc1ccc(CNC23CC4CC(CC(C4)C2)C3)c(O)c1 [Example 51a], the “S31N OOcyte Inhibition at 100 uM (%)” value was “A (key: (A)=31-95%; (B)=0-30%)”. For c1csc(-c2ccc(CNC34CC5CC(CC(C5)C3)C4)nc2)c1 [Example 55a, Adamantan-1-yl-(5-thiophen-2-yl-pyridin-2-ylmethyl)-amine], the “S31N OOcyte Inhibition at 100 uM (%)” value was “A (key: (A)=31-95%; (B)=0-30%)”. c1csc(-c2ccc(CNC34CC5CC(CC(C5)C3)C4)cn2)c1 [Example 58a, N-((6-(thiophen-2-yl)pyridin-3-yl)methyl)adamantan-1-amine] was tested, and the “S31N OOcyte Inhibition at 100 uM (%)” value was “A (key: (A)=31-95%; (B)=0-30%)”. In the case of c1cc(-c2ccc(CNC34CC5CC(CC(C5)C3)C4)cn2)cs1 [Example 59a, N-((6-(thiophen-3-yl)pyridin-3-yl)methyl)adamantan-1-amine], the “S31N OOcyte Inhibition at 100 uM (%)” value is reported as “A (key: (A)=31-95%; (B)=0-30%)”. For c1ccc(-c2ncc(CNC34CC5CC(CC(C5)C3)C4)cn2)cc1 [Example 63a, N-((2-phenylpyrimidin-5-yl)methyl)adamantan-1-amine], the “S31N OOcyte Inhibition at 100 uM (%)” value was “A (key: (A)=31-95%; (B)=0-30%)”. With c1ccc(-c2ncc(CNC34CC5CC(CC(C5)C3)C4)cn2)nc1 [Example 64a, N-((2-(pyridin-2-yl)pyrimidin-5-yl)methyl)adamantan-1-amine] the “S31N OOcyte Inhibition at 100 uM (%)” value was “B (key: (A)=31-95%; (B)=0-30%)”. With Cc1ccc(CNC23CC4CC(CC(C4)C2)C3)o1 [Example 67a] the “S31N OOcyte Inhibition at 100 uM (%)” value was “A (key: (A)=31-95%; (B)=0-30%)”. With c1c[nH]c(CNC23CC4CC(CC(C4)C2)C3)c1 [Example 72a, Adamantan-1-yl-(1H-pyrrol-2-ylmethyl)-amine] the “S31N OOcyte Inhibition at 100 uM (%)” value was “B (key: (A)=31-95%; (B)=0-30%)”.

Same assay, conditions: pH 5.5
With COc1ccc(-c2cc(CNC34CC5CC(CC(C5)C3)C4)no2)c(OC)c1 [Example 41b, N-((5-(2,4-dimethoxyphenyl)isoxazol-3-yl)methyl)adamantan-1-amine] the “S31N OOcyte Inhibition at 100 uM (%)” value was “A (key: (A)=31-95%; (B)=0-30%)”. For CSc1ccccc1-c1cc(CNC23CC4CC(CC(C4)C2)C3)no1 [Example 42b, N-((5-(2-(methylthio)phenyl)isoxazol-3-yl)methyl)adamantan-1-amine], the “S31N OOcyte Inhibition at 100 uM (%)” value was “A (key: (A)=31-95%; (B)=0-30%)”. In the case of COc1ccsc1-c1cc(CNC23CC4CC(CC(C4)C2)C3)no1 [Example 44b, N-((5-(3-methoxythiophen-2-yl)isoxazol-3-yl)methyl)adamantan-1-amine], the “S31N OOcyte Inhibition at 100 uM (%)” value is reported as “A (key: (A)=31-95%; (B)=0-30%)”. In the case of Clc1ccccc1-c1cc(CNC23CC4CC(CC(C4)C2)C3)no1 [Example 45b, N-((5-(2-chlorophenyl)isoxazol-3-yl)methyl)adamantan-1-amine], the “S31N OOcyte Inhibition at 100 uM (%)” value is reported as “A (key: (A)=31-95%; (B)=0-30%)”. With CSC(C)(C)Cc1cc(CNC23CC4CC(CC(C4)C2)C3)no1 [Example 46b, N-((5-(2-methyl-2-(methylthio)propyl)isoxazol-3-yl)methyl)adamantan-1-amine] the “S31N OOcyte Inhibition at 100 uM (%)” value was “A (key: (A)=31-95%; (B)=0-30%)”. Brc1ccsc1CNC12CC3CC(CC(C3)C1)C2 [Example 47b, N-((3-Bromothiophen-2-yl)methyl)adamantan-1-amine] was tested, and the “S31N OOcyte Inhibition at 100 uM (%)” value was “B (key: (A)=31-95%; (B)=0-30%)”. c1sc(CNC23CC4CC(CC(C4)C2)C3)cc1C1CC1 [Example 48b, N-((4-Cyclopropylthiophen-2-yl)methyl)adamantan-1-amine] was tested, and the “S31N OOcyte Inhibition at 100 uM (%)” value was “A (key: (A)=31-95%; (B)=0-30%)”. With CCOc1ccc(-c2ccc(CNC34CC5CC(CC(C5)C3)C4)s2)cc1 [Example 49b, N-((5-(4-Ethoxyphenyl)thiophen-2-yl)methyl)adamantan-1-amine] the “S31N OOcyte Inhibition at 100 uM (%)” value was “A (key: (A)=31-95%; (B)=0-30%)”. In the case of CC(C)(C)c1ccc(-c2ccc(CNC34CC5CC(CC(C5)C3)C4)s2)cc1 [Example 50b, N-((5-(4-(tert-Butyl)phenyl)thiophen-2-yl)methyl)adamantan-1-amine], the “S31N OOcyte Inhibition at 100 uM (%)” value is reported as “A (key: (A)=31-95%; (B)=0-30%)”. With Cc1csc(-c2ccc(CNC34CC5CC(CC(C5)C3)C4)s2)c1 [Example 51b, N-((4′-Methyl-[2,2′-bithiophen]-5-yl)methyl)adamantan-1-amine] the “S31N OOcyte Inhibition at 100 uM (%)” value was “A (key: (A)=31-95%; (B)=0-30%)”. In the case of Cc1ccc(-c2ccc(CNC34CC5CC(CC(C5)C3)C4)s2)o1 [Example 52b, N-((5-(5-Methylfuran-2-yl)thiophen-2-yl)methyl)adamantan-1-amine], the “S31N OOcyte Inhibition at 100 uM (%)” value is reported as “A (key: (A)=31-95%; (B)=0-30%)”. For c1ccc(-c2cnc(CNC34CC5CC(CC(C5)C3)C4)[nH]2)cc1 [Example 53b, N-((5-phenyl-1H-imidazol-2-yl)methyl)adamantan-1-amine], the “S31N OOcyte Inhibition at 100 uM (%)” value was “A (key: (A)=31-95%; (B)=0-30%)”. c1nc(N2CCCC2)ncc1CNC12CC3CC(CC(C3)C1)C2 [Example 54b, N-((2-(pyrrolidin-1-yl)pyrimidin-5-yl)methyl)adamantan-1-amine] was tested, and the “S31N OOcyte Inhibition at 100 uM (%)” value was “A (key: (A)=31-95%; (B)=0-30%)”. In the case of COc1ncc(CNC23CC4CC(CC(C4)C2)C3)cn1 [Example 55b, N-((2-methoxypyrimidin-5-yl)methyl)adamantan-1-amine], the “S31N OOcyte Inhibition at 100 uM (%)” value is reported as “A (key: (A)=31-95%; (B)=0-30%)”. CCSc1ncc(CNC23CC4CC(CC(C4)C2)C3)cn1 [Example 56b, N-((2-(ethylthio)pyrimidin-5-yl)methyl)adamantan-1-amine] was tested, and the “S31N OOcyte Inhibition at 100 uM (%)” value was “A (key: (A)=31-95%; (B)=0-30%)”. In the case of c1nc(N2CCOCC2)ncc1CNC12CC3CC(CC(C3)C1)C2 [Example 57b, N-((2-morpholinopyrimidin-5-yl)methyl)adamantan-1-amine], the “S31N OOcyte Inhibition at 100 uM (%)” value is reported as “A (key: (A)=31-95%; (B)=0-30%)”. For c1nc(N2CCCCC2)ncc1CNC12CC3CC(CC(C3)C1)C2 [Example 58b, N-((2-(piperidin-1-yl)pyrimidin-5-yl)methyl)adamantan-1-amine], the “S31N OOcyte Inhibition at 100 uM (%)” value was “A (key: (A)=31-95%; (B)=0-30%)”. CN(C)c1ncc(CNC23CC4CC(CC(C4)C2)C3)cn1 [Example 59b, N-((2-dimethylaminopyrimidin-5-yl)methyl)adamantan-1-amine] was tested, and the “S31N OOcyte Inhibition at 100 uM (%)” value was “A (key: (A)=31-95%; (B)=0-30%)”. CCOC(=O)CN(C)c1ncc(CNC23CC4CC(CC(C4)C2)C3)cn1 [Example 60b, N-((2-methyl(ethylcarboxymethyl)aminopyrimidin-5-yl)methyl)adamantan-1-amine] was tested, and the “S31N OOcyte Inhibition at 100 uM (%)” value was “A (key: (A)=31-95%; (B)=0-30%)”. With c1nc(C2CCCCC2)ncc1CNC12CC3CC(CC(C3)C1)C2 [Example 61b, N-((2-cyclohexylpyrimidin-5-yl)methyl)adamantan-1-amine] the “S31N OOcyte Inhibition at 100 uM (%)” value was “A (key: (A)=31-95%; (B)=0-30%)”. For CCCSc1ncc(CNC23CC4CC(CC(C4)C2)C3)cn1 [Example 62b, N-((2-propylthiopyrimidin-5-yl)methyl)adamantan-1-amine], the “S31N OOcyte Inhibition at 100 uM (%)” value was “A (key: (A)=31-95%; (B)=0-30%)”. Cc1cccc(-c2ncc(CNC34CC5CC(CC(C5)C3)C4)cn2)c1 [Example 63b, N-((2-mtolylpyrimidin-5-yl)methyl)adamantan-1-amine] was tested, and the “S31N OOcyte Inhibition at 100 uM (%)” value was “A (key: (A)=31-95%; (B)=0-30%)”. In the case of COc1ncc(CNC23CC4CC(CC(C4)C2)C3)c(OC)n1 [Example 64b, N-((2,4-dimethoxypyrimidin-5-yl)methyl)adamantan-1-amine], the “S31N OOcyte Inhibition at 100 uM (%)” value is reported as “B (key: (A)=31-95%; (B)=0-30%)”. For c1nc(CNC23CC4CC(CC(C4)C2)C3)sc1C1CC1 [Example 65b, Adamantan-1-yl-(5-cyclopropyl-thiazol-2-ylmethyl)-amine], the “S31N OOcyte Inhibition at 100 uM (%)” value was “A (key: (A)=31-95%; (B)=0-30%)”. In the case of CSc1ccccc1-c1ccc(CNC23CC4CC(CC(C4)C2)C3)cc1 [Example 66b, Adamantan-1-yl-(2′-methylsulfanyl-biphenyl-4-ylmethyl)-amine], the “S31N OOcyte Inhibition at 100 uM (%)” value is reported as “A (key: (A)=31-95%; (B)=0-30%)”. CSc1ccccc1-c1ccc(CNC23CC4CC(CC(C4)C2)C3)nc1 [Example 67b, Adamantan-1-yl-[5-(2-methylsulfanyl-phenyl)-pyridin-2-ylmethyl]-amine] was tested, and the “S31N OOcyte Inhibition at 100 uM (%)” value was “A (key: (A)=31-95%; (B)=0-30%)”. With Cc1csc(CNC23CC4CC(CC(C4)C2)C3)n1 [Example 68b, Adamantan-1-yl-(4-methyl-thiazol-2-ylmethyl)-amine] the “S31N OOcyte Inhibition at 100 uM (%)” value was “A (key: (A)=31-95%; (B)=0-30%)”. COc1ccccc1-c1ccc(CNC23CC4CC(CC(C4)C2)C3)nc1 [Example 69b, Adamantan-1-yl-[5-(2-methoxy-phenyl)-pyridin-2-ylmethyl]-amine] was tested, and the “S31N OOcyte Inhibition at 100 uM (%)” value was “A (key: (A)=31-95%; (B)=0-30%)”. For Clc1ccc(CNC23CC4CC(CC(C4)C2)C3)nn1 [Example 70b, Adamantan-1-yl-(6-chloro-pyridazin-3-ylmethyl)-amine], the “S31N OOcyte Inhibition at 100 uM (%)” value was “B (key: (A)=31-95%; (B)=0-30%)”. For c1csc(-c2ccc(CNC34CC5CC(CC(C5)C3)C4)nn2)c1 [Example 71b, Adamantan-1-yl-(6-thiophen-2-yl-pyridazin-3-ylmethyl)-amine], the “S31N OOcyte Inhibition at 100 uM (%)” value was “A (key: (A)=31-95%; (B)=0-30%)”. Clc1ccccc1-c1ccc(CNC23CC4CC(CC(C4)C2)C3)nc1 [Example 72b, Adamantan-1-yl-[5-(2-chloro-phenyl)-pyridin-2-ylmethyl]-amine] was tested, and the “S31N OOcyte Inhibition at 100 uM (%)” value was “A (key: (A)=31-95%; (B)=0-30%)”.
